ChEMBL document CHEMBL4229507, “Identification of influenza PA-Nter endonuclease inhibitors using pharmacophore- and docking-based virtual screening” (Bioorg Med Chem, 2018)

Tests used:
[1] = target: Polymerase acidic protein (Influenza A virus (strain A/X-31 H3N2), UniProt Q9IQ47); test: (§1) Inhibition of recombinant Influenza A virus (A/X-31(H3N2)) N-terminal 6xHis-tagged PA-Nter (1 to 217 residues) expressed in Escherichia coli BL21-CodonPlus cells using M13mp18 as substrate after 1 hr by ethidium bromide staining-based agarose gel electrophoresis
Influenza A virus = test: Antiviral activity against Influenza A virus (A/Puerto Rico/8/1934(H1N1)) infected in MDCK cells after 24 hrs by immunofocus assay; type: functional, organism-based
[2] = target: Polymerase acidic protein (Influenza A virus (strain A/X-31 H3N2)) (UniProt Q9IQ47); test: as §1
[3] = tested on: unidentified influenza virus; test: Antiviral activity against Influenza virus assessed as inhibition of viral transcription

Q: `O=C(C(=O)N1CCC(Cc2ccccc2)CC1)c1c[nH]c2cc(O)c(O)cc12` was tested. Which IC50 [1] did it give?
A: 266 µM

Q: With `O=C(CCN1CCC(Cc2ccc(F)cc2)CC1)c1c[nH]c2cc(O)c(O)cc12` as the compound, how does the IC50 [1] read?
A: 243 µM

Q: `O=c1[nH]c(-c2ccc(F)cc2)c(-c2ccc(-c3nnn[nH]3)cc2)cc1O` was tested. Which EC50 (Influenza A virus) did it give?
A: 11.4 µM

Q: `O=C(O)C(=O)CC(=O)c1ccccc1` was tested. Which IC50 [1] did it give?
A: 3.2 µM

Q: Which inhibition [2] does the source give for `NS(=O)(=O)c1ccc(C(=O)NCCc2ccc(O)c(O)c2)cc1` here?
A: Dose-dependent effect

Q: And the IC50 [1]?
A: 12 µM

Q: `O=C(O)/C(O)=C/C(=O)C1(Cc2ccc(Cl)cc2)CCN(Cc2ccccc2)CC1` was tested. Which IC50 [3] did it give?
A: 0.43 µM
